Patent US20210378926A1, “A TOPICAL COMPOSITION” (priority 2018, published 2021)

Tested on: S. hominis (ATCC 27844)
Test: Malodor Assay (H2S production, lead acetate paper blackening)
Type: cell-based
Conditions: S. hominis culture in TSB with 0.1% L-cysteine-HCl, 96 well plate, 37° C. for about 16 hours; blackening of lead acetate paper scored 0 to 10 versus control (completely black); ingredient amounts in ppm as per Table 1
Method: The efficacy of different ingredients and combinations were tried using the Malodor Assay protocol with S. hominis (ATCC 27844) as described below:
The malodour assay was done in a 96 well plate (Nunc™, ThermoFisher). First, a lead acetate paper was prepared as follows. A Whatman™ (No. 1) filter paper (150 mm, Cat No. 1001-150) was taken and cut to match the top cross-sectional dimension of the 96 well plate. 1% Lead acetate (Hi Media, RM 757) solution was prepared in distilled water and the Whatman™ filter paper was soaked in the prepared lead acetate solution. The excess solution from the filter paper was drained and allowed to dry in a Laminar Air Flow for 1 hour. After drying, the filter paper was wrapped in an Aluminium foil and autoclaved at 121° C. for about 20 minutes. This lead acetate paper was used for the assay to capture the malodour generation at the later stage.
A TSB broth solution was prepared by adding 0.1% L-cysteine-HCl (Sigma, C1276) into TSB (Bacto, 211825, 30 g/L) and autoclaved. After that, the 96 well plate was taken followed by addition of 180 μL/well of the above prepared TSB solution into the wells. Then 20 μL/well of S. hominis culture ([…]) was added to the wells. Different ingredient and/or mix of ingredients as per following Table 1 were added into the wells along with a control (only distilled water and bacteria) as per the required concentration (as mentioned in Table 1). Finally, the lead acetate paper that was prepared previously was placed on the wells of the 96-well plate and the lid was closed. This plate was then incubated in an incubator (LABTOP, bacteriological incubator) at 37° C. for about 16 hours. The lid of the plate was opened after the incubation and observed the lead acetate paper for any visual change in colour. […] The results and the effect of actives were compared with the control (completely black).
The results of these experiments are expressed in terms of “% reduction” in H2S production which is determined from the blackening of the spot as explained above. Each spot with different test samples has been compared with the control (completely black) sample. It was then rated on a scale of 0 to 10 (10 being completely black as like control and 0 is no blackening). From the score the percentage reduction was evaluated e.g. if the blackening of any sample is as dark as control then the score given was “8-10” and accordingly % reduction is <20%.

| SMILES | % reduction in H2S production |
| --- | --- |
| C=CCc1ccc(O)c(-c2ccc(O)c(CC=C)c2)c1 [C, honokiol] | 20-40% |
| C=CCc1ccc(O)c(-c2cc(CC=C)ccc2O)c1 [D, magnolol] | <20% |
| O=S(=O)([O-])[O-].[Fe+2] [G, FeSO4] | <20% |
| O=S(=O)([O-])[O-].[Cu+2] [J, CuSO4] | <20% |
| O=S(=O)([O-])[O-].[Cu+2] [K, CuSO4] | 20-40% |
